The source of these data is patent publication US20070037253A1, “Methods and compositions for treatment of arthritis and cancer” (priority 2003, published 2007).

What all share (assay type): cell-based
For one experiment, the system named is sPLA2 gene transcript. The experiment in a line: QRT-PCR relative mRNA expression in IL-1β-stimulated rabbit synovial fibroblasts. The text has this: (§1) FIG. 5 is a view of the effect of peptide on the relative expression of MMP and sPLA2 genes. QRT-PCR was used for assessing relative mRNA expression levels of IL-1β-stimulated rabbit synovial fibroblast cells in the presence and absence of the candidate lead peptide PIP [59-67] dimer. The amount of each mRNA was obtained by quantitative RT-PCR. The relative levels of gene expression were normalized to the housekeeping gene (GAPDH). […] Values are expressed as ±S.E.
(§2) RNA isolation of cultured FLSCs: FLSCs were grown to 80% confluence on 12-well culture dishes and starved in a serum-free medium with 5 μM PIP [59-67] dimer for 2 h. The cells were then stimulated with 5 ng/mL IL-1β (Recombinant human, Chemicon, USA.) for 24 h, washed with cold PBS and total RNA isolated from peptide-treated (n=3) and untreated (n=3) FLSCs using RNeasy® mini kit. The RNA samples were subsequently treated with RNase-free Dnase-I at room temperature for 20 min and stored at −80° C. until use. The quality and quantity of extracted RNA was determined by spectrophotometry (Bio-Rad, USA). All RNA samples used for QRT-PCR experiments were of highest purity with A260/A280 ratios of 1.9-2.1. The integrity and relative contamination with residual genomic DNA was assessed by 1% denaturing agarose gel electrophoresis.
(§3) Quantitative Real Time RT-PCR (LightCycler): Quantitative fluorescence-based real-time PCR was carried out according to the manufacturer's instructions using the LightCycler system with LightCycler FastStart DNA Master^PLUS SYBR Green I kit (Roche Diagnostics, Germany) as an independent method for assessing relative gene expression. Reverse Transcription (RT) of RNA and QRT-PCR were performed as follows: single stranded cDNA was generated from 3 μg of total RNA, 200 μM nucleotides, 500 units Superscript II reverse transcriptase (Invitrogen) and 1.5 μM oligo(dT)15 primers in 50 μL reactions. Reverse transcription was stopped after 1 hr by heating to 95° C. for 5 min. The primers were designed by Primer3 software: http://bioinformatics.weizmann.ac.il/cgi-bin/primer/primer3.cgi and subsequently checked for specificity using BLAST: http://www.ncbi.nlm.nih.gov/genome/seq/HsBlast.htmL. All primers and probes were synthesized by 1st BASE Pvt. Ltd., Singapore. The expression of GAPDH was used as an internal calibrator for equal RNA loading and to normalize relative expression data for all other genes analyzed. The copy ratio of each analyzed cDNA was determined as the mean of 3 experiments. The real-time quantitative RT-PCR data were quantified using relative quantification (2^−ΔΔCT) method as described [Livak, K. J, and Schmittgen, T. D. (2001) Analysis of relative gene expression data using real-time quantitative PCR and the 2(-Delta Delta C(T)) method.

The next experiment deals with TIMP-2 gene. Described as above. As to conditions: co-treatment with peptide, IL-1β-induced, normalized to GAPDH.
Description: as §1, §2, §3

A further experiment concerns MMP-9 gene transcript. The experiment is described as above.
Description: as §1, §2, §3

Another experiment has as its system TIMP-1 gene transcript. Described as above. As to conditions: 5 μM peptide, IL-1β-induced.
Description: as §1, §2, §3

Another experiment deals with MMP-2 gene transcript. Described as above.
Description: as §1, §2, §3

A further experiment concerns MMP-1 gene transcript. The description is as above.
Description: as §1, §2, §3

Experiment [1] concerns the target T1, MMP-1, secreted from IL-1 β-stimulated rabbit synovial fibroblasts (Oryctolagus cuniculus, UniProt P13943).
T1 construct: endogenous in cells; host or cells: HIG-82 rabbit fibroblast-like synoviocytes (ATCC CRL-1832)
T1 sequence (P13943 99-468): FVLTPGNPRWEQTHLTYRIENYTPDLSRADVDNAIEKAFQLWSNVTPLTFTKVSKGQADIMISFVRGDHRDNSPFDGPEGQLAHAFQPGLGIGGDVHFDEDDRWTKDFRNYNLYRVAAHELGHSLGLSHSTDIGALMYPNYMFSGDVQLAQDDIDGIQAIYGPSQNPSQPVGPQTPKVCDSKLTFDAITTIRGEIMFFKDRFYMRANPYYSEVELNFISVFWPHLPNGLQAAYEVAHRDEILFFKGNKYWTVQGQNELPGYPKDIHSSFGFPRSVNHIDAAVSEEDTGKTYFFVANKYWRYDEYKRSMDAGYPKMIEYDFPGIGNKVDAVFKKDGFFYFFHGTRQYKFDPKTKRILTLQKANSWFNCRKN
The experiment in a line: Secreted MMP-1 activity of IL-1β-stimulated rabbit synovial fibroblasts. The procedure: FLSC culture and inhibition of extracellular MMP activity: All experiments were performed on HIG-82 rabbit fibroblast-like synoviocytes (FLSCs) obtained from American Type Culture Collection (Manassas, Va.; catalogue No. CRL-1832). FLSCs were grown in Ham's F-12 medium containing 10% fetal bovine serum (FBS) and 1% penicillin/streptomycin, as recommended by the supplier. For experimental purposes, FLSCs were seeded into 12-well plates, grown to near confluence, and then serum starved (Ham's F-12 without FBS or penicillin/streptomycin) for 16 h. After serum starvation of FLSCs, supernatants were removed and replaced with fresh Ham's F-12 medium for 60 min at 37° C./5% CO2 before incubation for 2 h with various concentrations (1-10 μM) of test inhibitor peptides: P-NT.II, PIP [59-67] monomer and dimer. FLSCs were then stimulated for 24 h with IL-1β (10 ng/mL), and the supernatants concentrated by centrifugation in Centricon centrifugal filter devices (M.W. cutoff 30,000) for 35 min at 5000 rpm at 4° C. After activation with APMA (1 mM final concentration), the samples were measured for MMP-1 activity using BIOMOL AK-404 QuantiZyme Assay system, and for MMP-2 and -9 activities by gelatin zymography.

Setting [2] is: 5 μM peptide, IL-1β-induced, normalized to GAPDH.
The mark [3] stands for this setting: IL-1β-stimulated rabbit synovial fibroblasts in culture.

“Also recorded” adds a separate entry of the source. Where a SMILES comes first, the peptide text is derived from it. A value given as a limit tells only on which side of the number the result lay.

`CC[C@H](C)[C@H](NC(=O)[C@H](CC(=O)O)NC(=O)[C@@H](N)C(C)C)C(=O)N[C@@H](Cc1c[nH]cn1)C(=O)N[C@H](C(=O)N[C@@H](Cc1c[nH]c2ccccc12)C(=O)N[C@@H](CC(=O)O)C(=O)NCC(=O)N[C@H](C(=O)N[C@H](C(=O)N[C@@H](CC(=O)O)C(=O)N[C@H](C(=O)N[C@@H](Cc1c[nH]cn1)C(=O)N[C@H](C(=O)N[C@@H](Cc1c[nH]c2ccccc12)C(=O)N[C@@H](CC(=O)O)C(=O)NCC(=O)N[C@H](C(=O)O)C(C)C)C(C)C)[C@@H](C)CC)C(C)C)C(C)C)C(C)C` [PIP [59-67] dimer] (H-VDIHVWDGVVDIHVWDGV-OH; N-terminus and C-terminus assumed): in the experiment on sPLA2 gene transcript (setting [2]), the “sPLA2 mRNA expression level” value was “significantly inhibited; also recorded: significantly suppressed”. Further, the “decrease of sPLA2 mRNA expression” value with sPLA2 gene transcript (setting [3]) was greater than 1 fold. Also, in the experiment with TIMP-2 gene, the TIMP-2 gene expression entry is listed as “significantly inhibited”. In addition, the “MMP-9 mRNA expression level” value with MMP-9 gene transcript (setting [2]) was “significantly inhibited; also recorded: significantly suppressed”. Further, the “decrease of MMP-9 mRNA expression” value with MMP-9 gene transcript (setting [3]) is greater than 1 fold. In addition, the “TIMP-1 mRNA expression level” value in the experiment on TIMP-1 gene transcript is on record as “significantly suppressed”. In addition, the “MMP-2 mRNA expression level” value with MMP-2 gene transcript (setting [2]) is listed as “significantly inhibited; also recorded: significantly suppressed”. Further, in the experiment on MMP-2 gene transcript (setting [3]), the “decrease of MMP-2 mRNA expression” value is greater than 1 fold. Moreover, the “MMP-1 mRNA expression level” value in the experiment with MMP-1 gene transcript (setting [2]) was “significantly inhibited; also recorded: significantly suppressed”. Moreover, the “decrease of MMP-1 mRNA expression” value with MMP-1 gene transcript (setting [3]) is given as greater than 1 fold. The “enzyme activity of secreted MMP-1” value in experiment [1] is “markedly inhibited”.
